Literature values as cited in patent US20030021750A1, “Novel functional agents for magnetic resonance imaging” (priority 2001, published 2003).

Conditions: thermodynamic stability of the Gd3+ chelate; background statement

SMILES	stability constant (K) / formation constant, logK
O=C([O-])CN(CCN(CC(=O)[O-])CC(=O)[O-])CCN(CC(=O)[O-])CC(=O)[O-].[Gd+3] [Gd(DTPA)^2−]	22.4
O=C([O-])CN1CCN(CC(=O)[O-])CCN(CC(=O)[O-])CCN(CC(=O)[O-])CC1.[Gd+3] [Gd-DOTA]	28.5
